Results: patent US20030181401A1, “Insulin secretion promoter” (KYOWA HAKKO KOGYO CO., LTD., priority 2002, published 2003)

Key:
Type in all cases: in vivo
db/db mice [1] = assay: Test Example 5: serum insulin in glucose tolerance test after 7-day oral dosing of saccharides; conditions: for insulin concentration during glucose loading compared with the control group (in words): continuous daily oral dosing; for Serum insulin concentration after glucose loading, 30 minutes / Serum insulin concentration after glucose loading, 120 minutes / Serum insulin concentration after glucose loading, Zero minute: oral 200 + 300 mg/kg daily, 7 days, glucose 2 g/kg oral, mean ± SD
Method: (§1) Groups of male 9-week-old db/db mice (Clea Japan, Inc.) each consisting of 6 mice were fed CE-2 (Clea Japan, Inc.) for one week, so as to accustom the animals to the environment.
After acclimation, individual aqueous 10% solutions of lacto-N-neotetraose (abbreviated as “LNnT” hereinafter) and NeuAc were orally administered to the mice at 200 mg (saccharide)/kg body weight in the morning and at 300 mg (saccharide)/kg body weight in the evening. The same volume of saline was administered to the control group. The individual aqueous saccharide solutions and saline were both dosed daily to the mice for 7 days. During the dosing period, CE-2 was given together with drinking water ad libitum.
(§2) After 18-hour starvation from the final dosing on day 7, an aqueous 40% glucose solution was orally administered to 2 g (glucose)/kg body weight to the mice, to perform glucose tolerance test. Zero minute and 30 minutes after glucose loading, blood was taken from a tail vein. […] Blood was centrifuged (4° C., 10000 rpm, 10 minutes), to obtain serum.
(§3) Insulin in the serum recovered was assayed by enzyme immunoassay using Lebis Insulin kit (for rats-T) (Shibayagi, Co., Ltd.) in the same manner as in the Test Example 1.

db/db mice [2] = assay: Test Example 4: serum insulin in glucose tolerance test after 7-day oral dosing of saccharides; conditions: for serum insulin concentration during glucose loading compared with the control group (in words): continuous daily oral dosing; for Serum insulin concentration after glucose loading, 30 minutes / Serum insulin concentration after glucose loading, 120 minutes / Serum insulin concentration after glucose loading, Zero minute: oral 200 + 300 mg/kg daily, 7 days, glucose 2 g/kg oral, mean ± SD
Method: as §1
After acclimation, individual aqueous 10% solutions of 3′-sialyllactose (abbreviated as “3′-SL” hereinafter), 6′-sialylactose (abbreviated as “6′-SL”) and 2′-FL were orally administered to the mice at 200 mg (saccharide)/kg body weight in the morning and at 300 mg (saccharide)/kg body weight in the evening. The both volume of saline was administered to the control group. The individual aqueous saccharide solutions and saline were both dosed daily to the mice for 7 days. During the dosing period, CE-2 was given together with drinking water ad libitum.
as §2, §3

db/db mice [3] = assay: Test Example 3: serum insulin on day 8 after 7-day oral dosing of saccharides; conditions: for serum insulin concentration compared with the control group (in words): continuous daily oral dosing; for Serum insulin concentration after dosing of the individual saccharides: oral 200 + 300 mg/kg daily, 7 days, blood on day 8, no glucose loading, mean ± SD
Method: Group of male 9-week-old db/db mice (Clea Japan, Inc.) each consisting of 6 mice were fed CE-2 (Clea Japan, Inc.) for one week, so as to accustom the animals to the environment.
After acclimation, individual aqueous 10% solutions of globotriose (abbreviated “globo” hereinafter), N-acetyllactosamine (abbreviated as “LacNac” hereinafter) and N-acetylneuraminic acid (abbreviated as “NeuAc” hereinafter) were orally administered to the mice at 200 mg (saccharide)/kg body weight in the morning and at 300 mg (saccharide)/kg body weight in the evening.
The same volume of saline was administered to the control group. The individual aqueous saccharide solutions and saline were both dosed daily to the mice for 7 days. During the dosing period, CE-2 was given together with drinking water ad libitum.
Blood was centrifuged (4° C., 10000 rpm, 10 minutes), to obtain serum.
as §3

ICR mice [4] = assay: Test Example 6: serum insulin after intravenous saccharide with simultaneous oral glucose loading
Method: (§4) Groups of male 9-week-old ICR mice (Japan SLC, Inc.) each consisting of 7 mice were fed CE-2 (Clea Japan, Inc.) for one week, so as to accustom the animals to the environment. Then, the mice were fasted for 18 hours.
(§5) An aqueous 10% solution of 2′-FL or NeuAc was intravenously administered to the mice to 500 mg (saccharide)/kg body weight, while an aqueous 40% glucose solution was orally administered simultaneously to 2 g (glucose)/kg body weight, to the mice. To the control group, physiological saline was administered intravenously, while glucose was orally administered simultaneously to 2 g/kg body weight. Zero minute and 30 minutes after glucose loading, blood was taken from a tail vein. […] Blood was centrifuged (4° C., 10000 rpm, 10 minutes), to obtain serum.
Insulin in the serum recovered was assayed by enzyme immunoassay using Lebis Insulin kit (for mice-T) (Shibayagi, Co., Ltd.) in the same manner as in the Test Example 2.

ICR mice [5] = assay: Test Example 6: serum glucose after intravenous saccharide with simultaneous oral glucose loading
Method: as §4, §5
Furthermore, the glucose concentration in the serum recovered was also assayed. The glucose concentration was assayed, using Glucose CII-TEST WAKO (WAKO Pure Chemical Industries, Ltd.). 2 μl of the recovered serum was placed in a 96-well plate, followed by addition of 200 μl of the chromogenic solution attached to the kit, for incubation at 37° C. for 10 minutes. After incubation, the absorbance at 490 nm was assayed with a plate reader. Herein, a standard curve was prepared by using aqueous 500 mg/dl glucose solution as the standard solution to dilute the standard solution appropriately for the same reaction as for the serum, and plotting the relation between the concentration and the absorbance (490 nm). Based on the prepared standard curve and the absorbance from the reaction with the serum, the glucose concentration in the serum was determined.

[6] = ICR mice fasted 18 hours, 500 mg/kg intravenous with simultaneous glucose 2 g/kg oral, 30 minutes, mean ± SD
[7] = ICR mice fasted 18 hours, 500 mg/kg intravenous with simultaneous glucose 2 g/kg oral, 120 minutes, mean ± SD

Row | SMILES | insulin concentration during glucose loading compared with the control group (in words) (db/db mice [1]) | Serum insulin concentration after glucose loading, 30 minutes (db/db mice [1]) [ng/mL] | Serum insulin concentration after glucose loading, 120 minutes (db/db mice [1]) [ng/mL] | Serum insulin concentration after glucose loading, Zero minute (db/db mice [1]) [ng/mL] | serum insulin concentration during glucose loading compared with the control group (in words) (db/db mice [2]) | Serum insulin concentration after glucose loading, 30 minutes (db/db mice [2]) [ng/mL] | Serum insulin concentration after glucose loading, 120 minutes (db/db mice [2]) [ng/mL] | Serum insulin concentration after glucose loading, Zero minute (db/db mice [2]) [ng/mL] | serum insulin concentration compared with the control group (in words) (db/db mice [3]) | Serum insulin concentration after dosing of the individual saccharides (db/db mice [3]) [ng/mL] | further results
1 | CC(=O)N[C@H]1[C@H](O[C@H]2[C@@H](O)[C@@H](CO)O[C@@H](O[C@H]3[C@H](O)[C@@H](O)C(O)O[C@@H]3CO)[C@@H]2O)O[C@H](CO)[C@@H](O[C@@H]2O[C@H](CO)[C@H](O)[C@H](O)[C@H]2O)[C@@H]1O (mixture of isomers) [LNnT, lacto-N-neotetraose] | increased | 21.7 ± 13.8 | 25.9 ± 13.2 | 8.9 ± 2.0 |  |  |  |  |  |  | 
2 | CC(=O)N[C@H]1[C@H]([C@H](O)[C@H](O)CO)O[C@@](O[C@H]2[C@@H](O)[C@@H](CO)O[C@@H](O[C@H]3[C@H](O)[C@@H](O)C(O)O[C@@H]3CO)[C@@H]2O)(C(=O)O)C[C@@H]1O (some centres unmarked) [3′-SL, 3′-sialyllactose] |  |  |  |  | increased | 5.1 ± 1.9 | 22.0 ± 12.5 | 6.0 ± 2.2 |  |  | 
3 | CC(=O)N[C@H]1[C@H]([C@H](O)[C@H](O)CO)O[C@@](OC[C@H]2O[C@@H](O[C@H]3[C@H](O)[C@@H](O)[C@H](O)O[C@@H]3CO)[C@H](O)[C@@H](O)[C@H]2O)(C(=O)O)C[C@@H]1O [6′-SL, 6′-sialylactose] |  |  |  |  | increased | 6.6 ± 3.4 | 17.9 ± 6.3 | 5.9 ± 3.0 |  |  | 
4 | OC[C@H]1O[C@H](O[C@@H]2[C@H](O)[C@@H](O)[C@H](O[C@H]3[C@H](O)[C@@H](O)C(O)O[C@@H]3CO)O[C@@H]2CO)[C@H](O)[C@@H](O)[C@H]1O (some centres unmarked) [Globo, globotriose] |  |  |  |  |  |  |  |  | increased | 23.7 ± 16.4 | 
5 | CC(=O)N[C@H]1C(O)O[C@H](CO)[C@@H](O[C@@H]2O[C@H](CO)[C@H](O)[C@H](O)[C@H]2O)[C@@H]1O (some centres unmarked) [LacNac, N-acetyllactosamine] |  |  |  |  |  |  |  |  | increased | 26.8 ± 11.5 | 
6 | CC(=O)N[C@H]1[C@H]([C@H](O)[C@H](O)CO)OC(O)(C(=O)O)C[C@@H]1O (some centres unmarked) [NeuAc, N-acetylneuraminic acid] | increased | 18.5 ± 8.5 | 30.3 ± 10.7 | 8.9 ± 7.7 |  |  |  |  | increased | 68.4 ± 45.9 | Serum insulin concentration after glucose loading, 30 minutes (ICR mice [4]; [6]): 178.3 ± 105.5 pg/mL; Serum insulin concentration after glucose loading, 120 minutes (ICR mice [4]; [7]): 384.4 ± 394.1 pg/mL; serum insulin concentration after glucose loading compared with the control group (in words) (ICR mice [4]; ICR mice, intravenous dosing): increased; Serum glucose concentration after glucose loading, 30 minutes (ICR mice [5]; [6]): 300.9 ± 101.6 mg/dL; Serum glucose concentration after glucose loading, 120 minutes (ICR mice [5]; [7]): 197.6 ± 28.8 mg/dL; Serum glucose concentration after glucose loading, Zero minute (ICR mice [5]; ICR mice fasted 18 hours, 500 mg/kg intravenous with simultaneous glucose 2 g/kg oral, zero minute, mean ± SD): 102.6 ± 12.1 mg/dL; increase of the serum glucose concentration compared with the control group (in words) (ICR mice [5]; ICR mice, intravenous dosing): suppressed
